# The source made the active and inactive calls.
# Tests used:
# [1] = biological target: T1, Calpain-2 catalytic subunit (Sus scrofa, UniProt P43367); experiment: pig calpain II inhibitor potency, dose response, biochemical, fluorogenic peptide substrate (AID 1420); format: functional
# T1 sequence (P43367 whole entry): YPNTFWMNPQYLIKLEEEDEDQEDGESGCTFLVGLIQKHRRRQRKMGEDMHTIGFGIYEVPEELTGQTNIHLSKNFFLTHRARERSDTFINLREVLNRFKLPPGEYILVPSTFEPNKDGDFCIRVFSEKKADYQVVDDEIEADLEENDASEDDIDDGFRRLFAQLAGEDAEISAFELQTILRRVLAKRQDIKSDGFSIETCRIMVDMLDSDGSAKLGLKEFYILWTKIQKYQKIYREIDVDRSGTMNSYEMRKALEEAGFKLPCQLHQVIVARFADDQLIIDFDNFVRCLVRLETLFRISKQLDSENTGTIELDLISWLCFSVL
# HeLa = experiment: HeLa cell cytotoxicity, dose response, cytotoxicity control, ATP luminescence, cherry-pick samples (AID 687004); format: functional, cell-based; settings: Homo sapiens
# cells = format: functional, cell-based; settings: HEK-CNG
# Galanin receptor type 3 = Galanin receptor type 3 (Homo sapiens, UniProt O60755); experiment: Fluorescence-based cell-based primary high throughput dose response assay to identify antagonists of the Galanin Receptor 3 (GalR3).; format: functional
# [2] = biological target: Endoplasmic reticulum aminopeptidase 1 (Homo sapiens, UniProt Q9NZ08); experiment: ERAP1 aminopeptidase inhibitors, dose response, biochemical, cherry-pick, set 2, plate reader (AID 743314)
# [3] = biological target: Disintegrin and metalloproteinase domain-containing protein 17 (Homo sapiens, UniProt P78536); experiment: exosite inhibitors of ADAM17, dose response, biochemical (AID 743260)
# [4] = biological target: Induced myeloid leukemia cell differentiation protein Mcl-1 (Homo sapiens, UniProt Q07820); format: functional
# [5] = ADAM10 protease inhibitors, dose response, selectivity assay for ADAM17 exosite inhibitor project, biochemical, FRET peptide substrate, recombinant human ADAM10 (AID 743259);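 note: ADAM10 enzyme cleaving a FRET peptide substrate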
# Beta Lactamase = Beta Lactamase (Pseudomonas aeruginosa, UniProt Q932Y6); experiment: beta-lactamase reporter inhibitor potency, dose response, artefact control for TLR9-MyD88 binding inhibitor project, BLA reporter cells, FRET fluorescence (AID 588341); format: cell-based;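 note: cell based assay in CHO-K1 cells stably expressing beta-lactamase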
# CHO = experiment: cytotoxicity in TLR9-MyD88 CHO cells, dose response, cytotoxicity control for TLR9-MyD88 binding inhibitor project, cell-based, luminescence (AID 588339); format: functional, hamster; settings: Cricetulus griseus;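 note: CHO cells stably coexpressing TLR9 and MyD88 fusions from primary screen; compound exposure lasted 48 hours before viability readout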
# [6] = control 3'UTR Renilla luciferase suppression, dose response, counter-screen for Shn3 inhibitor project, cell-based, Clone20-Shn3RL, cherry-picked (AID 624133); format: functional
# [7] = biological target: T2, Replicative DNA helicase DnaB (Mycobacterium tuberculosis, UniProt P9WMR3); experiment: DnaB intein splicing inhibitors, dose response, biochemical, cell-free fluorescence (AID 449749); format: functional
# T2 sequence (P9WMR3 whole entry): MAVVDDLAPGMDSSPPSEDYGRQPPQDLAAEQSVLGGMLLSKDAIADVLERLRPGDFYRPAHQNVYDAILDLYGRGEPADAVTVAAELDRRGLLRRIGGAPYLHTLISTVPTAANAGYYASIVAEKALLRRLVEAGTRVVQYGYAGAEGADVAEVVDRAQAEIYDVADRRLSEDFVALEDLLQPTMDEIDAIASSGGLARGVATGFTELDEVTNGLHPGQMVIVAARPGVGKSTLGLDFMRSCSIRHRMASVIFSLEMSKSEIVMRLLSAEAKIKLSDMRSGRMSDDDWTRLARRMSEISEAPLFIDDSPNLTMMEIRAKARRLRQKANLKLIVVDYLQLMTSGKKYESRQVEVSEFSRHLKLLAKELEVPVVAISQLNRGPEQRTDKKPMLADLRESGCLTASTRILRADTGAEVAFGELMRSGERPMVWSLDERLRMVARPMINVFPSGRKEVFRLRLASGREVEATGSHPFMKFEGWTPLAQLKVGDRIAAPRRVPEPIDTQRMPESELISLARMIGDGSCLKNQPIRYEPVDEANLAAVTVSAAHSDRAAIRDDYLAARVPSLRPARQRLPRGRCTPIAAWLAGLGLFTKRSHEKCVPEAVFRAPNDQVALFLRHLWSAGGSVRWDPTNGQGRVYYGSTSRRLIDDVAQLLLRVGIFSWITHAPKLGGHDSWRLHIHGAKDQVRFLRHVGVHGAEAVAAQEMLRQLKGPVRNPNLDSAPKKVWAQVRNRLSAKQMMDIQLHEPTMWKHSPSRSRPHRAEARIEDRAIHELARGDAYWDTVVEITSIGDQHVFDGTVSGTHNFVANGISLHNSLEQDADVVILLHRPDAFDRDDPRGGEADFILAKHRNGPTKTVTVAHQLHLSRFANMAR
# [8] = Shn3 3'UTR reporter inhibitors, dose response, cell-based, Clone20 osteoblasts, firefly luciferase, cherry-picked (AID 624132); format: functional;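 note: firefly luciferase luminescence from reporter carrying the Shn3 3'UTR in osteoblasts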
# [9] = biological target: T3, Ubiquitin-conjugating enzyme E2 N (Homo sapiens, UniProt P61088); format: functional
# T3 sequence (P61088 whole entry): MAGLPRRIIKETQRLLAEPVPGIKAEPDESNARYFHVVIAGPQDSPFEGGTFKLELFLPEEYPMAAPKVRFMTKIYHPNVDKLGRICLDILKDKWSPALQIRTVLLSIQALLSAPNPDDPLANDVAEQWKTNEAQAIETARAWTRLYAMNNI
# Bcl-2-related protein A1 = biological target: T4, Bcl-2-related protein A1 (Mus musculus, UniProt Q07440); format: functional;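 note: confirmatory dose–response counterscreen on Bfl-1, used to check hits from a UBC13 polyubiquitin inhibitor campaign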
# T4 sequence (Q07440 whole entry): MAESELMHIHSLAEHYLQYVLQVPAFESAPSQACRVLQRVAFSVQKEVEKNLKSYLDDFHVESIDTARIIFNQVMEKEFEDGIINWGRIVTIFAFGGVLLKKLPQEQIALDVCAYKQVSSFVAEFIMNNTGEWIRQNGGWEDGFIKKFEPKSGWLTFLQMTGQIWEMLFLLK
# [10] = Luminescence Cell-Based Dose Retest to Confirm Inhibitors of Cancer Stem Cells. [Related pubchem assays (depositor defined):AID2717, AID2721]; format: functional; settings: Homo sapiens
# Protein RecA = biological target: T5, Protein RecA (Mycobacterium tuberculosis, UniProt P9WHJ3); experiment: Fluorescence Cell-Free Homogeneous Dose Retest to Identify Inhibitors of RecA-Intein Splicing Activity. [Related pubchem assays (depositor defined):AID2097, AID2223, AID489010, AID492950]; format: functional
# T5 sequence (P9WHJ3 whole entry): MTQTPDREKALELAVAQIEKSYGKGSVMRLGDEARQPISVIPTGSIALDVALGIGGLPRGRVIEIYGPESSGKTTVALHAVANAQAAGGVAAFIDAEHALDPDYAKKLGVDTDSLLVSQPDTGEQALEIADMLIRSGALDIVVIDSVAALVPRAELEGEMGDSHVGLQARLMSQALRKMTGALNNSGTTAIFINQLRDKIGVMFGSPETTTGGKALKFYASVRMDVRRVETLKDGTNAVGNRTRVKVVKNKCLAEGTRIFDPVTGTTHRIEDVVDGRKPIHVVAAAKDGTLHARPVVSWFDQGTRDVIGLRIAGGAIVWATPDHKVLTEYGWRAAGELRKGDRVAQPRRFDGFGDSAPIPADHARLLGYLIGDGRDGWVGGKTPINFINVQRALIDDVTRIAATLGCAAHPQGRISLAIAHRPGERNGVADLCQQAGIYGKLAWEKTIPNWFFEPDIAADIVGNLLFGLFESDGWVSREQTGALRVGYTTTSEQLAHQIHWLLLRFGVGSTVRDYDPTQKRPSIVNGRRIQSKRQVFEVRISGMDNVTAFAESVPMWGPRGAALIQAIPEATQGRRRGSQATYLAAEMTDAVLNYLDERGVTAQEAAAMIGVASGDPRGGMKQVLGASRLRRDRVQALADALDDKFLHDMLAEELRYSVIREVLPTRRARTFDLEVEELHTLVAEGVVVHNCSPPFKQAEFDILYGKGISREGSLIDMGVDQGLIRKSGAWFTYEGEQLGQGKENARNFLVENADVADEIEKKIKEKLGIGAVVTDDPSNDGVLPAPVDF
# [11] = HepG2 cell cytotoxicity, dose response, cytotoxicity control for Shn3 inhibitor project, CellTiter-Glo, cherry-picked (AID 624134); format: functional, cell-based
# [12] = biological target: ATP-binding cassette sub-family B member 6 (Homo sapiens, UniProt Q9NP58); experiment: ABCB6 transporter inhibitors, porphyrin accumulation, dose response, flow cytometry, K562-ABCB6 cells, cherry pick 02 (AID 624487); format: functional; settings: read-out: EC50_MICROM
# [13] = biological target: T3, Ubiquitin-conjugating enzyme E2 N; format: functional; remark: listed apart in the source
# Albumin = Albumin (Bos taurus, UniProt P02769); experiment: Counterscreen for inhibitors of T-cell receptor (TCR)-CD3 interaction: Fluorescence-based biochemical high throughput dose response assay to identify inhibitors of T-cell receptor (TCR)-CD3 interaction using a TAMRA-labeled BSA probe.; format: functional
# [14] = Counterscreen for activators of the function of SWI/SNF related, matrix associated, actin dependent regulator of chromatin, subfamily a, member 2 (SMARCA2, BRM): Luminescence-based cell-based high throughput dose response assay to identify non-selective compounds using the VP16 reporter assay.; format: functional
# [15] = inhibitors of PGC1a acetylation in cells, dose response, cell-based, cherry-picked samples (AID 720514); format: functional;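 note: potency may reflect raised or lowered acetylation signal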
# [16] = biological target: SWI/SNF-related matrix-associated actin-dependent regulator of chromatin subfamily A member 2 (Homo sapiens, UniProt P51531); experiment: Luminescence-based cell-based high throughput dose response assay to identify activators of the function of SWI/SNF related, matrix associated, actin dependent regulator of chromatin, subfamily a, member 2 (SMARCA2, BRM).; format: functional
# fMet-Leu-Phe receptor = fMet-Leu-Phe receptor (Homo sapiens, UniProt P21462); experiment: FPR ligands, dose response (AID 519); format: functional
# [17] = CEM21 cell cytotoxicity, dose response, cytotoxicity control, plate reader, dry powder (AID 687026); format: functional, cell-based
# NS3 = NS3 (Hepatitis C virus, UniProt A3EZJ3); experiment: HCV NS3 helicase inhibitor potency, dose response, biochemical, fluorescence polarization, ChemBridge library (AID 743264)
# A549 = experiment: A549 cell toxicity, dose response, cytotoxicity control, plate reader, cherry-pick samples (AID 687028); format: functional, cell-based; settings: Homo sapiens
# [18] = cytotoxicity in HeLa cells, dose response, cytotoxicity control, cell-based, plate reader, dry powder (AID 651946); format: functional
# Fatty acid synthase = Fatty acid synthase (Homo sapiens, UniProt P49327); experiment: FAS thioesterase domain inhibitors, SAR follow-up, biochemical, endpoint fluorescence intensity, powder samples (AID 652164); format: functional
# [19] = biological target: Kappa-type opioid receptor (Homo sapiens, UniProt P41145); experiment: OPRK1 antagonists, late-stage follow-up, cell-based, fluorescence, dose response (AID 652032); format: functional
# [20] = YAP1 pathway inhibition via CTGF transcript levels, dose response, cell-based, DLD1 colon cancer, RT-qPCR, cherry-pick (AID 1053122); format: functional; settings: Cancer cell lines
# Chain of ATP-binding cassette sub-family B member 6 (Q9NP58 whole entry): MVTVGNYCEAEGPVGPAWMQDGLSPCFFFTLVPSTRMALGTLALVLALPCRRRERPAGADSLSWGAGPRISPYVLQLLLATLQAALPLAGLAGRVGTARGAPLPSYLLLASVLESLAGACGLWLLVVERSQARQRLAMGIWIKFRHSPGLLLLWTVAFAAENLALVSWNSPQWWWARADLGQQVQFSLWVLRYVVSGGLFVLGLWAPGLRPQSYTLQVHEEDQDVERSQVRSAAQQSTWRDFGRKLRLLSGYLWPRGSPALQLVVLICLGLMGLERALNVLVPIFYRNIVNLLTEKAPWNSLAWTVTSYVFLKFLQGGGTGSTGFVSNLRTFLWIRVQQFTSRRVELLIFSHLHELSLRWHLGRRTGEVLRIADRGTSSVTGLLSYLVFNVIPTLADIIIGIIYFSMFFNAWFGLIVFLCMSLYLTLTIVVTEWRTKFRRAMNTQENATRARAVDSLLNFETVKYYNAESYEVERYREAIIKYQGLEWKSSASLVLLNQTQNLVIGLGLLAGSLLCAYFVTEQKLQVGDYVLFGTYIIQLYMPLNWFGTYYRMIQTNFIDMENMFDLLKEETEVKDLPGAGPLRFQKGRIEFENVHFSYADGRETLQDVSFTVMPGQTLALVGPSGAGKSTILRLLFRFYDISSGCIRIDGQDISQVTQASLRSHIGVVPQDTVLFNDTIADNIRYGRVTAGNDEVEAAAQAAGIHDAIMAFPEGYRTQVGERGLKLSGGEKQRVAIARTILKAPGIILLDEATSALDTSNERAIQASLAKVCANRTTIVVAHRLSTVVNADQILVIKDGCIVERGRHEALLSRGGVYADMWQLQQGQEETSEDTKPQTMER
# Chain of Kappa-type opioid receptor (P41145 whole entry): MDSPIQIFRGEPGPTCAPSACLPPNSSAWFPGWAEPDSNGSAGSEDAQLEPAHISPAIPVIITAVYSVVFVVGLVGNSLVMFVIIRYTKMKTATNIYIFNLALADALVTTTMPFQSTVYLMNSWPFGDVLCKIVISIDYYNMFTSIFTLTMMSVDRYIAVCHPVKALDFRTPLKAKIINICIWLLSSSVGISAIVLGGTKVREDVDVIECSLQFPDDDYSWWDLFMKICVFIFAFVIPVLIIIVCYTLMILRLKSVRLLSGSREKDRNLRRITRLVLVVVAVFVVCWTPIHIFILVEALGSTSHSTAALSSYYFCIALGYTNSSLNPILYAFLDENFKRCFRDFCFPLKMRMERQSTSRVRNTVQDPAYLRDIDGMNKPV
# Chain of Disintegrin and metalloproteinase domain-containing protein 17 (P78536 whole entry, the tested form may be a part): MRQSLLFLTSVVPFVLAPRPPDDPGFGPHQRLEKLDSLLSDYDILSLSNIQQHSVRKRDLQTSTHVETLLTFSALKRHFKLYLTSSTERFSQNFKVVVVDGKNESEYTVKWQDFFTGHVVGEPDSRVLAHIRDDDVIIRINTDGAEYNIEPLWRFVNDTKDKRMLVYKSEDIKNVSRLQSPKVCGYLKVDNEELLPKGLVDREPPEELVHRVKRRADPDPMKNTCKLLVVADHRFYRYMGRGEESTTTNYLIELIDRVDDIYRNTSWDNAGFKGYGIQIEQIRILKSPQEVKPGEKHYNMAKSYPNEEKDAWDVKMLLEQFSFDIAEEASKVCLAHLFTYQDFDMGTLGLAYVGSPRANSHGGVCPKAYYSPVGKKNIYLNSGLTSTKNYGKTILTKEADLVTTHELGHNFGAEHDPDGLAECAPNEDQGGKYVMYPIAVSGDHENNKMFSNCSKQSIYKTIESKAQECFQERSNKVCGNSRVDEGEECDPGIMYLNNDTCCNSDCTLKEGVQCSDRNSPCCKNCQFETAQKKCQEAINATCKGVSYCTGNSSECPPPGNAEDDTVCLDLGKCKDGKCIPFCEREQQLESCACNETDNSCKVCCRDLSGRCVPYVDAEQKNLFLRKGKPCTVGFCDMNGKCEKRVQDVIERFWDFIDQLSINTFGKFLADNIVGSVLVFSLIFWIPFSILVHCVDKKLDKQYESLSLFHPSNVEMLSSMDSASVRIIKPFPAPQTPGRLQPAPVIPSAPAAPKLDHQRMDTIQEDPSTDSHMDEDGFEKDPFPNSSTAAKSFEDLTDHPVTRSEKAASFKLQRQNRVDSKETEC
# Chain of Galanin receptor type 3 (O60755 whole entry): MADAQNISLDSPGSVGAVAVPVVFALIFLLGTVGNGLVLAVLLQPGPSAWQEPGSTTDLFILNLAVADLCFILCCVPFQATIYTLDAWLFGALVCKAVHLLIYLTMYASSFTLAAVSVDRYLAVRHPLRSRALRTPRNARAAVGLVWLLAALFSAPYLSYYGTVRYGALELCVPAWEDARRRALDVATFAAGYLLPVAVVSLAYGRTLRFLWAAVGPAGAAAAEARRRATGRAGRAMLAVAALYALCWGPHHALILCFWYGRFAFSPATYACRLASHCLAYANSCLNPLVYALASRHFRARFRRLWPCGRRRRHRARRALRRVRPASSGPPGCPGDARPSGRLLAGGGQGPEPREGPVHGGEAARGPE
# Chain of Endoplasmic reticulum aminopeptidase 1 (Q9NZ08 whole entry, the tested form may be a part): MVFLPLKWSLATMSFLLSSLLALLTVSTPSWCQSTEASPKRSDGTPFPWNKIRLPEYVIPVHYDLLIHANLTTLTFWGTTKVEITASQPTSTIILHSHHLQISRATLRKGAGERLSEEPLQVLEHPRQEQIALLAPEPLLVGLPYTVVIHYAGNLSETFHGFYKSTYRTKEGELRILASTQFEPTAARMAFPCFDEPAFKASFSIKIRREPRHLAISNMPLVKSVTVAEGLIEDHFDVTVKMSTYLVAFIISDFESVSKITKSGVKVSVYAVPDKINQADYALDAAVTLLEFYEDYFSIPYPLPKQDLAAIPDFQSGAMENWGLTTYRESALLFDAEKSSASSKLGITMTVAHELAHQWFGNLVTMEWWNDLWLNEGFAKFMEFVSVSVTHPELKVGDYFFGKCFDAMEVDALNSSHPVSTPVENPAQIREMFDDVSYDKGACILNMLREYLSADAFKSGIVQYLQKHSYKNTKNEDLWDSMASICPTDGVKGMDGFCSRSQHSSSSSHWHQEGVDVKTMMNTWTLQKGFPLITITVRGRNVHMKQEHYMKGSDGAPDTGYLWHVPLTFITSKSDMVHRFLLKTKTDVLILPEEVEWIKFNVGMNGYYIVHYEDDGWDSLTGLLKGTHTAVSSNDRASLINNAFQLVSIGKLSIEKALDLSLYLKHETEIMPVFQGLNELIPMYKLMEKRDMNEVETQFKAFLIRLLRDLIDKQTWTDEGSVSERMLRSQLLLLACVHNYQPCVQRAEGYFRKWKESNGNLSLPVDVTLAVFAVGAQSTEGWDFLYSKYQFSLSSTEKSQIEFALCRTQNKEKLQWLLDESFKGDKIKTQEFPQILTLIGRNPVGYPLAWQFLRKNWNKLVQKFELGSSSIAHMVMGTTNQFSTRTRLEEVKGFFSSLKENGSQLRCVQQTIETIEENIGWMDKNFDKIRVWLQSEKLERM
# Chain of NS3 (A3EZJ3 whole entry): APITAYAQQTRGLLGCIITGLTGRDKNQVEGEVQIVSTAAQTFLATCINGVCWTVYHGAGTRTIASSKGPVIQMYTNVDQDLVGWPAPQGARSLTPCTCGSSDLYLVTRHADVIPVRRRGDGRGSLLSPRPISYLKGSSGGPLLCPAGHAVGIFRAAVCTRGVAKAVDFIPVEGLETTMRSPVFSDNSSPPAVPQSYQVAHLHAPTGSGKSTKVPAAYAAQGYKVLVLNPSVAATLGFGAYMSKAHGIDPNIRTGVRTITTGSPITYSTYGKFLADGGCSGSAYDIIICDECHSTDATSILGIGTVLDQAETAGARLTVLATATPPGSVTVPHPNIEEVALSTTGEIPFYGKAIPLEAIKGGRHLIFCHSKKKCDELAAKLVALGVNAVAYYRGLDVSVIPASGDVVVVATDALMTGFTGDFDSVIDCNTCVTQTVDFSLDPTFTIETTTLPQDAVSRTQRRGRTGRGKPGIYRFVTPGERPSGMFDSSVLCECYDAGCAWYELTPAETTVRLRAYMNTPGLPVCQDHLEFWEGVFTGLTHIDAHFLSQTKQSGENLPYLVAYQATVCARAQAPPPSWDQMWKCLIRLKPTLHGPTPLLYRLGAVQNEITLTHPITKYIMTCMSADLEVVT
# Chain of fMet-Leu-Phe receptor (P21462 whole entry): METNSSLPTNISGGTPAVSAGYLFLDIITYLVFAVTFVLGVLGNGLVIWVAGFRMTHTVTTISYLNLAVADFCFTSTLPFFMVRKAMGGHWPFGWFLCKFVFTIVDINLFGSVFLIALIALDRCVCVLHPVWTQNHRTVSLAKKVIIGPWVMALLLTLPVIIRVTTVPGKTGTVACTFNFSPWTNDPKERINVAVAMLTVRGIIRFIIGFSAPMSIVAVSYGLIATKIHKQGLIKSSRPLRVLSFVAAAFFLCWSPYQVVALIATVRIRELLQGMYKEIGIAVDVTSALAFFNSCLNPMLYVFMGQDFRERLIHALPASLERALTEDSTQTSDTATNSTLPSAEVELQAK
# Chain of Albumin (P02769 whole entry): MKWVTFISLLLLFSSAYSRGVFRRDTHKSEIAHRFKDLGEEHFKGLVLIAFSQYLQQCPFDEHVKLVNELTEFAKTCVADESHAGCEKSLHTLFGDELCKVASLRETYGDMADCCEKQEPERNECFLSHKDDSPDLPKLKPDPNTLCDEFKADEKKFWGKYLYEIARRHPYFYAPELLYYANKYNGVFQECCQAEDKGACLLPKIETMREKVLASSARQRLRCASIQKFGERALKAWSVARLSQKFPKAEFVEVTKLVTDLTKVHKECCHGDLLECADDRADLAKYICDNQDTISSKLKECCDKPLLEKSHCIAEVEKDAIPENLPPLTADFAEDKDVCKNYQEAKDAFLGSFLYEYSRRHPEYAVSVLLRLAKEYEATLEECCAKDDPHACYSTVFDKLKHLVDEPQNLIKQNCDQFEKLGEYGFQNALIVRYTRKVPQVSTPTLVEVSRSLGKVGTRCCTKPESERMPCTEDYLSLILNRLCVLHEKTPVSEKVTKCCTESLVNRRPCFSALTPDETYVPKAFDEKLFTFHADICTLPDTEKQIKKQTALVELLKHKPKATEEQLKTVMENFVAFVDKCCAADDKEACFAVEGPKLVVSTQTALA
structure (smiles),measurement,setting,value
CC(C)c1ccccc1N=C(S)NN(Cc1ccccc1)c1ccccc1,IC50,[1],< 0.4 µM (not active)
same,AC50,HeLa,> 52 µM (inactive)
CC(CC(=O)Nc1ccc(Cl)c(S(=O)(=O)N2CCOCC2)c1)c1ccccc1 (centres undefined),EC50,cells,> 29.9 µM (inactive)
same,IC50,Galanin receptor type 3,1.21 µM (active)
O=c1ccc2cc(O[C@@H]3O[C@@H](CO)[C@H](O)[C@@H](O)[C@@H]3O)c(O)cc2o1,AC50,[2],2.37 µM (active)
CN(C)c1ccc(NC(=O)c2ccc(COc3cccc(Cl)c3)o2)cc1,IC50,[3],> 69.5 µM (inactive)
same,IC50,[4],23.4 µM (active)
same,IC50,[5],8.25 µM (active)
CC(=O)Nc1ccc(NC(=O)c2nc(S(=O)(=O)Cc3cccc(C)c3)ncc2Cl)cc1,IC50,Beta Lactamase,9.43 µM (active)
same,IC50,CHO,3.54 µM (active)
same,AC50,[6],6.53 µM (active)
same,AC50,[7],7.54 µM (active)
same,AC50,[8],0.528 µM (active)
same,IC50,[9],13 µM (active)
same,IC50,Bcl-2-related protein A1,> 20 µM (inactive)
same,AC50,[10],2.47 µM (active)
same,EC50,Protein RecA,5.24 µM (active)
same,AC50,[11],66.6 µM (active)
same,EC50,[12],17.8 µM (active)
same,IC50,[13],> 20 µM (inactive)
CCc1ccc(NC(=O)NNC(=O)c2ccc3ccccc3c2O)cc1,IC50,Albumin,> 94.1 µM (inactive)
Cc1cc(C)cc(OC(=O)C[S+]([O-])c2ccc(C(F)(F)F)cc2[N+](=O)[O-])c1 (centres undefined),AC50,[7],4.03 µM (active)
same,EC50,[14],> 91.2 µM (inactive)
same,EC50,Protein RecA,1.3 µM (active)
same,AC50,[15],10.3 µM (active)
same,EC50,[16],> 91.2 µM (inactive)
CCCc1nc2ccccc2c2nc(N)nn12,Ki,fMet-Leu-Phe receptor,> 66.7 µM (inactive)
Cc1ccc(C)n1-c1ccc(C(=O)O)c(O)c1,AC50,[17],> 70 µM (inactive)
same,IC50,NS3,1.85 µM (inactive)
C[C@@H]1CCCCO[C@@H](CN(C)C(=O)Cc2ccccc2)[C@H](C)CN([C@H](C)CO)C(=O)c2cc(NS(=O)(=O)c3ccc(Cl)cc3)ccc2O1,AC50,A549,31.2 µM (active)
[O-][S+](Cc1cn(-c2ccccc2)nn1)c1nnc(-c2ccc(Cl)cc2)o1 (centres undefined),AC50,[18],15.6 µM (active)
CC(=O)Nc1nc(-c2ccc(S(=O)(=O)N3CCOCC3)cc2)cs1,IC50,Fatty acid synthase,11.4 µM (active)
COC(=O)c1cc(Br)cnc1N1CCCC(NC2CCCCC2)C1 (centres undefined),IC50,[19],11.7 µM (inactive)
C[C@@H]1C/C=C/C[C@@H](c2cccc(Cl)c2)NC(=O)[C@H](Cc2ccccc2)N(C)C(=O)c2ccccc2O1.C[C@@H]1C/C=C\C[C@@H](c2cccc(Cl)c2)NC(=O)[C@H](Cc2ccccc2)N(C)C(=O)c2ccccc2O1,AC50,[20],0.492 µM (active)
